Measurements published in patent US20260124214A1, “HETEROCYCLIC COMPOUNDS FOR USE IN THE TREATMENT OF CANCER” (ARTIOS PHARMA LIMITED, priority 2021, published 2026).
Counter-ions that a name gives are not always drawn.

Molecular target: T1, Human Polθ polymerase domain (aa1820-2590) (Homo sapiens, UniProt O75417)
T1 construct: Human Polθ polymerase domain (aa1820-2590) was expressed in E. Coli; made in house; host or cells: E. coli
T1 sequence (O75417 1820-2590): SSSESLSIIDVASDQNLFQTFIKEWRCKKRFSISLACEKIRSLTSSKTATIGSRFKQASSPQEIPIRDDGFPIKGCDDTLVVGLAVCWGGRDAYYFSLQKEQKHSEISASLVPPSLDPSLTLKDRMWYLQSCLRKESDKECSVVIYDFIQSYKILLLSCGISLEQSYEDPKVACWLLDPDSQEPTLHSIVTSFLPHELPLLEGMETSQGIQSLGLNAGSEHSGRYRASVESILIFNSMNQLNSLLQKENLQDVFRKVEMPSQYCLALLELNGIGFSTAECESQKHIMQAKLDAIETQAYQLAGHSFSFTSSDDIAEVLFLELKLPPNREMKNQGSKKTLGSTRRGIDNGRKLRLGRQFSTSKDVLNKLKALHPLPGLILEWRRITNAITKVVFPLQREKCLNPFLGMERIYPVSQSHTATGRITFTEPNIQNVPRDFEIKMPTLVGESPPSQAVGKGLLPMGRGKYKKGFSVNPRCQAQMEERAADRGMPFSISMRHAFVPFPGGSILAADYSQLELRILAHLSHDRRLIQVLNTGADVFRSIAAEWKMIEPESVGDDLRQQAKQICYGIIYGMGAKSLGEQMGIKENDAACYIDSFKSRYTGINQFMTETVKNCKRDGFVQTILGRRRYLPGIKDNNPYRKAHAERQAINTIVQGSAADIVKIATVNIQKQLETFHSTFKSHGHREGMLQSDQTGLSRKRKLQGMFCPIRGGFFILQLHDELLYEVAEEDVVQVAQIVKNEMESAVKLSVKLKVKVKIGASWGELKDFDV
Experiment: Polθ Polymerase Domain WT KI Assay (PicoGreen)
Format: biochemical
Settings: 100 nM DNA substrate, 0.156 nM Polθ, initial rates vs inhibitor concentration
Protocol: A PicoGreen assay was used to measure the KI values of reversible compounds that inhibit the activity of Polθ in vitro.
Human Polθ polymerase domain (aa1820-2590) was expressed in E. Coli, purified, aliquoted and stored at −80° C. until required. Polθ substrate was generated from a 1.2:1 mix of DNA II Short to DNA II Long to give a final concentration of […] substrate in annealing buffer (20 mM Tris pH 7.5, 50 mM NaCl). The substrate was heated in 50 mL aliquots to 95° C. in a heating block for 5 min before the heating block switched off, the reaction left to cool to rt and stored at −20° C. until required.
Assay measurements were performed with 1× buffer comprising 25 mM Tris pH 7.5, 12.5 mM NaCl, […], 5% (v/v) glycerol, 0.01% v/v Triton x-100, 0.1 mg/ml BSA, 1 mM DTT. […] 100 nL of 23×1:1.5-fold serial dilutions and a DMSO only control were dispensed using the Tecan dispenser into Greiner 384 well black low volume plates (product code 784076). DMSO concentration was maintained at 1% of the final assay volume by back filling with DMSO.
To stop the reaction, 5 μL of a solution containing 25 mM Tris-HCl PH 7.5 and 20 mM EDTA was added at […] (t=0, 15, 30, 60, 90, 120, 150, 180 mins) using the Tempest's time delay function. The plates were covered during the time course to prevent evaporation. After completing the assay, 5 μL of detection reagent (25 mM Tris-HCl pH 7.5 and 2.5% (v/v) PicoGreen) was dispensed into the wells using a Tempest liquid handler (Formulatrix) and plates subsequently read on the CLARIOstar Plus (BMG Labtech) using the default optical settings for fluorescein and the auto gain/focus settings.
All data analysis was carried out using GraphPad Prism V.8 (GraphPad Software Inc, San Diego, CA). Time course data for each inhibitor concentration were fitted to the linear regression model in GraphPad Prism. Any time points where the control (DMSO only) reaction was no longer linear were excluded from the analysis. The initial rates (slopes) obtained from the linear regression were then plotted against inhibitor concentration and fitted to an inhibitor vs. response variable slope (four parameter) model on GraphPad Prism to determine the KI values.

Row | SMILES | Ki [nM]
1 | Cc1cc(C(F)(F)F)cc(N2C(=O)C[C@@H]3CN(CCN4CCN(C)CC4)c4c(Cl)cc(F)cc4N(C)C(=O)[C@H]32)n1 [Example 8, (3aR,11aS)-6-Chloro-8-fluoro-10-methyl-1-(6-methyl-4-(trifluoromethyl)pyridin-2-yl)-5-(2-(4-methylpiperazin-1-yl)ethyl)-1,3a,4,5,10,11a-hexahydro-2H-benzo[b]pyrrolo[2,3-f][1,4]diazocine-2,11(3H)-dione] | 4.36
2 | Cc1cc(C(F)(F)F)cc(N2C(=O)C[C@@H]3CNc4c(C)cccc4N(C)C(=O)[C@H]32)n1 [Example 3, (3aR,11aS)-6,10-Dimethyl-1-(6-methyl-4-(trifluoromethyl)pyridin-2-yl)-1,3a,4,5,10,11a-hexahydro-2H-benzo[b]pyrrolo[2,3-f][1,4]diazocine-2,11(3H)-dione] | 0.927
3 | Cc1cc(C(F)(F)F)cc(N2C(=O)C[C@@H]3CN(CCCO)c4c(F)cccc4N(C)C(=O)[C@H]32)n1 [Example 127, (3aR,11aS)-6-Fluoro-5-(3-hydroxypropyl)-10-methyl-1-(6-methyl-4-(trifluoromethyl)pyridin-2-yl)-1,3a,4,5,10,11a-hexahydro-2H-benzo[b]pyrrolo[2,3-f][1,4]diazocine-2,11(3H)-dione] | 7.21
4 | Cc1cc(C(F)(F)F)cc(N2C(=O)C[C@@H]3CN(CC4CCNCC4)c4c(F)cccc4N(C)C(=O)[C@H]32)n1 [Example 77, (3aR,11aS)-6-Fluoro-10-methyl-1-(6-methyl-4-(trifluoromethyl)pyridin-2-yl)-5-(piperidin-4-ylmethyl)-1,3a,4,5,10,11a-hexahydro-2H-benzo[b]pyrrolo[2,3-f][1,4]diazocine-2,11(3H)-dione Hydrochloride] | 11.3
5 | Cc1cc(C(F)(F)F)cc(N2C(=O)C[C@@H]3CN(Cc4cccnc4)c4c(C)cccc4N(C)C(=O)[C@H]32)n1 [Example 115, (3aR,11aS)-6,10-Dimethyl-1-(6-methyl-4-(trifluoromethyl)pyridin-2-yl)-5-(pyridin-3-ylmethyl)-1,3a,4,5,10,11a-hexahydro-2H-benzo[b]pyrrolo[2,3-f][1,4]diazocine-2,11(3H)-dione] | 1.08
6 | Cc1cc(C(F)(F)F)cc(N2C(=O)C[C@@H]3CN(CCN4CC[C@H](C(=O)N(C)C)C4)c4c(C)cccc4N(C)C(=O)[C@H]32)n1 [Example 72, (S)-1-(2-((3aR,11aS)-6,10-Dimethyl-1-(6-methyl-4-(trifluoromethyl)pyridin-2-yl)-2,11-dioxo-1,2,3,3a,4,10,11,11a-octahydro-5H-benzo[b]pyrrolo[2,3-f][1,4]diazocin-5-yl)ethyl)-N,N-dimethylpyrrolidine-3-carboxamide] | 0.969
7 | CC(=O)N1CCN(CCN2C[C@H]3CC(=O)N(c4cc(C(F)(F)F)cc(C)n4)[C@@H]3C(=O)N(C)c3cccc(Cl)c32)CC1 [Example 33, (3aR,11aS)-5-(2-(4-Acetylpiperazin-1-yl)ethyl)-6-chloro-10-methyl-1-(6-methyl-4-(trifluoromethyl)pyridin-2-yl)-1,3a,4,5,10,11a-hexahydro-2H-benzo[b]pyrrolo[2,3-f][1,4]diazocine-2,11(3H)-dione] | 1.73
8 | Cc1cc(C(F)(F)F)cc(N2C(=O)C[C@@H]3CN(CCN4CC[C@H](C(=O)N(C)C)C4)c4c(Cl)cccc4N(C)C(=O)[C@H]32)n1 [Example 41, (S)-1-(2-((3aR,11aS)-6-Chloro-10-methyl-1-(6-methyl-4-(trifluoromethyl)pyridin-2-yl)-2,11-dioxo-1,2,3,3a,4,10,11,11a-octahydro-5H-benzo[b]pyrrolo[2,3-f][1,4]diazocin-5-yl)ethyl)-N,N-dimethylpyrrolidine-3-carboxamide] | 2.9
9 | COc1cccc(N2C[C@H]3CC(=O)N(c4cc(C(F)(F)F)cc(C)n4)[C@@H]3C(=O)N(C)c3cccc(F)c32)n1 [Example 141, (3aR,11aS)-6-Fluoro-5-(6-methoxypyridin-2-yl)-10-methyl-1-(6-methyl-4-(trifluoromethyl)pyridin-2-yl)-1,3a,4,5,10,11a-hexahydro-2H-benzo[b]pyrrolo[2,3-f][1,4]diazocine-2,11(3H)-dione] | 86.3
10 | Cc1cc(C(F)(F)F)cc(N2C(=O)C[C@@H]3CN(Cc4cc5n(n4)CCN(C)C5)c4c(C)cccc4N(C)C(=O)[C@H]32)n1 [Example 113, (3aR,11aS)-6,10-Dimethyl-5-((5-methyl-4,5,6,7-tetrahydropyrazolo[1,5-a]pyrazin-2-yl)methyl)-1-(6-methyl-4-(trifluoromethyl)pyridin-2-yl)-1,3a,4,5,10,11a-hexahydro-2H-benzo[b]pyrrolo[2,3-f][1,4]diazocine-2,11(3H)-dione] | 0.237
11 | Cc1cc(C(F)(F)F)cc(N2C(=O)C[C@@H]3CN(Cc4nc5n(n4)CCNC5)c4c(F)cccc4N(C)C(=O)[C@H]32)n1 [Example 98, (3aR,11aS)-6-Fluoro-10-methyl-1-(6-methyl-4-(trifluoromethyl)pyridin-2-yl)-5-((5,6,7,8-tetrahydro-[1,2,4]triazolo[1,5-a]pyrazin-2-yl)methyl)-1,3a,4,5,10,11a-hexahydro-2H-benzo[b]pyrrolo[2,3-f][1,4]diazocine-2,11(3H)-dione] | 4.91
12 | Cc1cc(C(F)(F)F)cc(N2C(=O)C[C@@H]3CNc4c(Cl)cccc4N(C)C(=O)[C@H]32)n1 [Example 2, (3aR,11aS)-6-Chloro-10-methyl-1-(6-methyl-4-(trifluoromethyl)pyridin-2-yl)-1,3a,4,5,10,11a-hexahydro-2H-benzo[b]pyrrolo[2,3-f][1,4]diazocine-2,11(3H)-dione] | 0.847

Other lines, results leading:

Row | Ki [nM] | SMILES
13 | 28.2 | Cc1cc(C(F)(F)F)cc(N2C(=O)C[C@@H]3CN(C[C@H]4COCCN4)c4c(F)cccc4N(C)C(=O)[C@H]32)n1 (racemic) [Example 106b, (3aR,11aS)-6-Fluoro-10-methyl-1-(6-methyl-4-(trifluoromethyl)pyridin-2-yl)-5-(((S/R)-morpholin-3-yl)methyl)-1,3a,4,5,10,11a-hexahydro-2H-benzo[b]pyrrolo[2,3-f][1,4]diazocine-2,11(3H)-dione]
14 | 1.48 | Cc1cc(C(F)(F)F)cc(N2C(=O)C[C@@H]3CN(C[C@@H]4CCN(C)[C@@H](C)C4)c4c(Cl)cccc4N(C)C(=O)[C@H]32)n1 (single isomer, unassigned) [Example 126d]
15 | 10.2 | Cc1cc(C(F)(F)F)cc(N2C(=O)C[C@@H]3CN(CC(C)O)c4c(F)cccc4N(C)C(=O)[C@H]32)n1 (single isomer, unassigned) [Example 130b]
16 | 2.46 | Cc1cc(C(F)(F)F)cc(N2C(=O)C[C@@H]3CN(CC(O)CN4CCOCC4)c4c(Cl)cccc4N(C)C(=O)[C@H]32)n1 (single isomer, unassigned) [Example 133b]
17 | 3.91 | Cc1cc(C(F)(F)F)cc(N2C(=O)C[C@@H]3CN(CC4CCCN4)c4c(Cl)cccc4N(C)C(=O)[C@H]32)n1 (single isomer, unassigned) [Example 107a]
18 | 4.09 | Cc1cc(C(F)(F)F)cc(N2C(=O)C[C@@H]3CN(C[C@@H]4CCCCN4C)c4c(Cl)cccc4N(C)C(=O)[C@H]32)n1 (racemic) [Example 117b, (3aR,11aS)-6-Chloro-10-methyl-1-(6-methyl-4-(trifluoromethyl)pyridin-2-yl)-5-(((S/R)-1-methylpiperidin-2-yl)methyl)-1,3a,4,5,10,11a-hexahydro-2H-benzo[b]pyrrolo[2,3-f][1,4]diazocine-2,11(3H)-dione]
19 | 1.55 | Cc1cc(C(F)(F)F)cc(N2C(=O)C[C@@H]3CN(CC4COCCN4)c4c(Cl)cccc4N(C)C(=O)[C@H]32)n1 (single isomer, unassigned) [Example 108b]
